The source of these data is PubChem BioAssay (NCI).

Some test systems named below: HCC-2998 colon; HS 578T breast; HT29 colon; IGROV1 ovarian; KM12 colon; MOLT-4 leukemia; OVCAR-4 ovarian; SF-268 CNS; SK-MEL-2 melanoma; SNB-19 CNS.
What all share (test): NCI anticancer screen, dose series, 48 h

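A five-concentration, 48-hour dose response in 96-well plates underlies each endpoint, interpolated linearly between surrounding concentrations. Abbreviation: GI50, concentration required for 50% inhibition of growth. TGI is the concentration that stops growth completely.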

Take `CCNCCS(=O)(=O)NC[C@@]1(c2ccccc2)SC(NC(=O)C(C)(C)C)=NN1C(=O)C(C)(C)C`: the GI50 with HCC-2998 colon was less than 0.01 µM; in the assay on HS 578T breast it was less than 0.01 µM; in the assay with HT29 colon, less than 10 nM; in the assay with IGROV1 ovarian it was 2.9 µM; with KM12 colon it was less than 0.01 µM; in the assay on MOLT-4 leukemia it was less than 0.0139 µM. Moreover, the GI50 is 35.5 µM in the assay with OVCAR-4 ovarian, less than 0.01 µM in the assay on SF-268 CNS and less than 0.01 µM in the assay with SK-MEL-2 melanoma. Besides, the TGI in the assay on HCC-2998 colon is more than 51.2 µM; in the assay on HS 578T breast it was more than 100 µM; in the assay with HT29 colon, more than 100 µM; in the assay on IGROV1 ovarian it was more than 100 µM; in the assay on KM12 colon it was more than 100 µM; with MOLT-4 leukemia, more than 100 µM. Moreover, the TGI with OVCAR-4 ovarian was more than 100 µM; in the assay on SF-268 CNS, more than 100 µM; with SK-MEL-2 melanoma it was 28.4 µM; in the assay on SNB-19 CNS, more than 100 µM.

Regarding `C=C(CC)C(=O)c1ccc(OCC(=O)O)c(Cl)c1Cl`, the TGI is 35.4 µM in the assay on HCC-2998 colon; 45.9 µM in the assay with HS 578T breast; 36.3 µM in the assay on HT29 colon; 47.5 µM with IGROV1 ovarian; 21.4 µM in the assay on KM12 colon; more than 62.2 µM with MOLT-4 leukemia. Further, the TGI is 43.6 µM in the assay on OVCAR-4 ovarian, 33.1 µM with SF-268 CNS, 33.2 µM in the assay with SK-MEL-2 melanoma and 31.3 µM with SNB-19 CNS.

On to `O=C1NC(=NCCc2ccccc2F)S/C1=C\c1ccc2ncccc2c1`, for which the GI50 is 8.55 µM in the assay on HCC-2998 colon; 7.05 µM in the assay with HS 578T breast; 5870 nM in the assay on HT29 colon; 7.02 µM in the assay with IGROV1 ovarian; 4.02 µM in the assay on KM12 colon; 9.02 µM in the assay with MOLT-4 leukemia. The GI50 with OVCAR-4 ovarian was 6.45 µM; in the assay on SF-268 CNS it was 7.76 µM; in the assay with SK-MEL-2 melanoma, 6.16 µM; in the assay on SNB-19 CNS, 5.68 µM. For the same molecule, the TGI was more than 25 µM in the assay on HCC-2998 colon; more than 23.4 µM in the assay on HS 578T breast; more than 25 µM in the assay with HT29 colon; more than 25 µM with IGROV1 ovarian; more than 25 µM with KM12 colon; more than 25 µM in the assay with MOLT-4 leukemia. The TGI in the assay on OVCAR-4 ovarian is more than 20.6 µM; in the assay on SF-268 CNS, more than 25 µM; in the assay with SK-MEL-2 melanoma it was 14.5 µM; with SNB-19 CNS, more than 25 µM.

As for `C/C(=N\O)C1CC(CC(=O)O)C1(C)C` (centres undefined), the TGI in the assay with HCC-2998 colon, in the assay with HS 578T breast, with HT29 colon, in the assay on IGROV1 ovarian, with KM12 colon and in the assay on MOLT-4 leukemia was more than 100 µM in each case. The TGI in the assay with OVCAR-4 ovarian, in the assay with SF-268 CNS, in the assay on SK-MEL-2 melanoma and in the assay with SNB-19 CNS was more than 100 µM each time.

Take `Cn1ccc(S(=O)(=O)N2CCC[C@H](Nc3nccc(-c4c(-c5cccc(O)c5)nc5occn45)n3)C2)n1`: the GI50 with HCC-2998 colon was 15 µM; in the assay with HS 578T breast, 7.57 µM; in the assay with HT29 colon it was 732 nM; in the assay with IGROV1 ovarian it was 10.9 µM; with KM12 colon, 18.3 µM; with MOLT-4 leukemia it was 17.4 µM. Further, the GI50 is 14.5 µM with OVCAR-4 ovarian, 21.4 µM in the assay on SF-268 CNS, 0.444 µM in the assay with SK-MEL-2 melanoma and 46.4 µM with SNB-19 CNS. Moreover, the TGI with HCC-2998 colon is 34.3 µM; with HS 578T breast, 93.5 µM; in the assay on HT29 colon it was 34.7 µM; in the assay with IGROV1 ovarian, 51.9 µM; in the assay with KM12 colon, more than 86.9 µM; in the assay with MOLT-4 leukemia, 63.7 µM. For the same molecule, the TGI in the assay with OVCAR-4 ovarian was more than 85.8 µM; with SF-268 CNS, more than 100 µM; in the assay on SK-MEL-2 melanoma, 10.7 µM; in the assay with SNB-19 CNS, more than 100 µM.

Consider `c1ccc(C2=Nc3ccccc3N3CNN=C23)cc1`, for which the GI50 was more than 100 µM in the assay on HCC-2998 colon; 81.8 µM in the assay with HS 578T breast; 52200 nM in the assay with HT29 colon; more than 100 µM in the assay with IGROV1 ovarian; more than 100 µM in the assay on KM12 colon; 24.2 µM in the assay with MOLT-4 leukemia. Further, the GI50 in the assay with OVCAR-4 ovarian, in the assay on SF-268 CNS, in the assay on SK-MEL-2 melanoma and in the assay with SNB-19 CNS was more than 100 µM in each case. The TGI with HCC-2998 colon, in the assay with HS 578T breast, with HT29 colon, in the assay on IGROV1 ovarian, in the assay on KM12 colon and in the assay on MOLT-4 leukemia was more than 100 µM each time. In addition, the TGI in the assay on OVCAR-4 ovarian, in the assay on SF-268 CNS, with SK-MEL-2 melanoma and in the assay with SNB-19 CNS was more than 100 µM throughout.

As for `Nc1nc(N)c2c(Cl)c(CNc3ccc(Cl)c(Cl)c3)ccc2n1`, the TGI is 2.05 µM in the assay on HCC-2998 colon; 11.9 µM with HS 578T breast; 10.3 µM in the assay with HT29 colon; 13.4 µM in the assay on IGROV1 ovarian; 3.19 µM in the assay on KM12 colon; 9.41 µM in the assay with MOLT-4 leukemia. In addition, the TGI was determined as 16.9 µM with OVCAR-4 ovarian, 15.7 µM in the assay with SF-268 CNS, 16.7 µM in the assay with SK-MEL-2 melanoma and 17.7 µM in the assay with SNB-19 CNS.

Regarding `N=C1C(c2nc3ccccc3c(=O)[nH]2)=C(O)CN1c1cccc(Cl)c1`, the GI50 was 34.3 µM in the assay with HCC-2998 colon; 2.79 µM with HS 578T breast; 845 nM in the assay with HT29 colon; 37.6 µM in the assay with IGROV1 ovarian; 2.01 µM with KM12 colon; 4.51 µM in the assay on MOLT-4 leukemia. For the same molecule, the GI50 in the assay with OVCAR-4 ovarian was more than 23 µM; in the assay with SF-268 CNS it was 8.78 µM; in the assay with SK-MEL-2 melanoma it was more than 100 µM; in the assay on SNB-19 CNS it was 6.74 µM. Moreover, the TGI in the assay with HCC-2998 colon was more than 100 µM; in the assay on HS 578T breast it was 12.3 µM; in the assay with HT29 colon, more than 100 µM; in the assay on IGROV1 ovarian, more than 100 µM; in the assay with KM12 colon, more than 100 µM; in the assay with MOLT-4 leukemia, more than 100 µM. For the same molecule, the TGI in the assay on OVCAR-4 ovarian, in the assay with SF-268 CNS, in the assay on SK-MEL-2 melanoma and in the assay on SNB-19 CNS was more than 100 µM each time.
